Experiments:
HIV (IHV-1RF) = experiment: Anti-viral (virucidal) assay: plate-bound HIV treated 10 minutes, C8166 cells added, syncytium score and XTT; type: cell-based; settings: for Syncytia score day 5 (quadruplicate wells) / Syncytia score day 6 (quadruplicate wells): C8166 cells; for Mean Optical Readings at 450 nm: XTT cell viability; for Syncytia score day 6 (quadruplicate wells) / Mean Optical Readings at 450 nm / IC50: day 6; for IC50: XTT, virus treated 10 minutes, read-out: IC50 (virucidal)
Procedure: HIV was attached to the surface of 96-well cell culture plates using 100 μl of 50 μg/ml poly-L-lysine hydrobromide (PLL) of molecular weight >300 K for 1 h at RT. The outer wells were left uncoated and filled with 250 μl of PBS to counteract the effects of evaporation. The coated wells were washed twice with PBS and 25 μl of RPMI 1640 medium containing 5×10^3 TCID50 of IHV-1RF was added and incubated for 1 h at RT. The wells were then washed twice with PBS and 25 μl of varying concentrations of the test compounds made up with serum free medium (containing a constant 10% DMSO) were added to the wells in quadruplicate and the plates incubated at 37° C. for 10 minutes. The wells were again washed twice with PBS and 5×10^4 C8166 cells in a volume of 300 μl distributed to each well and the plates incubated for 5 and 6 days respectively. On days 5 and 6 the cells were assessed microscopically for the presence of cytopathic effect (syncytium formation) and recorded. In order to quantify the cytopathic effect, XIT which is metabolised by viable but not dead cells, was added and the absorbance read at 450 nm after […] incubation at 37° C.
An assessment of viral cytopathic effect was made microscopically on days 5 and 6, but the end point of the experiment was on day 6 when the level of virus infection (as determined by cell viability) was quantified by the use of XTT.

Chlamydia trachomatis = experiment: Chlamydia assay: transient treatment of Chlamydia with maleimides, infection of McCoy cells, iodine-stained inclusions counted; type: cell-based; settings: for IODINE-STAINED INCLUSIONS/FIELD F1: field 1; for IODINE-STAINED INCLUSIONS/FIELD F2: field 2; for IODINE-STAINED INCLUSIONS/FIELD F3: field 3; for IODINE-STAINED INCLUSIONS/FIELD F4: field 4; for IODINE-STAINED INCLUSIONS/FIELD F5: field 5; for MEAN COUNT/FIELD (iodine-stained inclusions): mean of 5 fields; for COMMENTS: inclusions seen on entire coverslip: re-examined under low power; for TOTAL COUNT/FIELDS (iodine-stained inclusions): sum of 5 fields; for inhibition of the infection of McCoy cells with chlamydia: transient exposure of chlamydia to compound
Procedure: Purified Chlamydia trachomatis (250 μl) was added to 250 μl of each compound concentration and the mixtures incubated at room temperature for 5 minutes. The tubes were then centrifuged (15000 rpm, 15 minutes), the supernatant decanted and the pellet washed serum free MEM (with 0.5 mls). This step was repeated and the resultant pellet resuspended MEM (in 0.5 ml) and inoculated into a confluent shell vial (coverslip) cultures of McCoy cells. The cultures were centrifuged (3000 rpm, 1 hour at 37° C.) and incubated for a further 2 hours prior to being changed onto MEM with 10% foetal calf serum, I μg/rl cycloheximide, 0.5% added glucose, vancomycin, streptomycin and amphoteracin B (Fungizone). The cultures were incubated for 68 hours, fixed in methanol and stained with Lugol's iodine. 3 replicates of each positive control (with and without DMSO) were included, as well as 2 uninoculated cell controls. Each coverslip culture was examined using low power (10×) objective to ensure that inclusions were evenly distributed and 5 high power (×40) fields were selected at random from different areas of the coverslip. Iodine stained inclusions were counted. Where no inclusions were seen on high power, the culture was re-examined under low power. Table 1. Effect of Transient Treatment with maleimides on Chlamydia Infection of McCoy Cell In Vitro. Chlamydia was pre-treated with each of the indicated maleimides for 5 minutes and the compound removed by centrifugation. McCoy cells were then exposed to the compound pre-treated chlamydia for 68 hours and inclusions counted following staining of cells with Lugols iodine.

[1] = Human immunodeficiency virus 1, C8166
[2] = final conc 0.02 (M), working conc 0.04 (M)
[3] = final conc 0.4 (M), working conc 0.8 (M)
[4] = final conc 1 (M), working conc 2 (M), 5 minutes pre-treatment, McCoy cells 68 hours
[5] = final conc 1 (M), working conc 2 (M)

O=C1C=CC(=O)N1CCN1C(=O)C=CC1=O [Compound 1, ethyl bis-maleimide]
Syncytia score day 5 (quadruplicate wells) (HIV (IHV-1RF); Conc 0.003 mM): ++++ (50-100% syncytia)
Syncytia score day 6 (quadruplicate wells) (HIV (IHV-1RF); Conc 0.003 mM): ++++ (50-100% syncytia)
Mean Optical Readings at 450 nm (HIV (IHV-1RF); Conc 0.003 mM): 0.4875
Syncytia score day 5 (quadruplicate wells) (HIV (IHV-1RF); Conc 0.01 mM): ++++ (50-100% syncytia)
Syncytia score day 6 (quadruplicate wells) (HIV (IHV-1RF); Conc 0.01 mM): ++++ (50-100% syncytia)
Mean Optical Readings at 450 nm (HIV (IHV-1RF); Conc 0.01 mM): 0.5028
Syncytia score day 5 (quadruplicate wells) (HIV (IHV-1RF); Conc 0.03 mM): ++++ (50-100% syncytia)
Syncytia score day 6 (quadruplicate wells) (HIV (IHV-1RF); Conc 0.03 mM): ++++ (50-100% syncytia)
Mean Optical Readings at 450 nm (HIV (IHV-1RF); Conc 0.03 mM): 0.5142
Syncytia score day 5 (quadruplicate wells) (HIV (IHV-1RF); Conc 0.1 mM): ++++ (50-100% syncytia)
Syncytia score day 6 (quadruplicate wells) (HIV (IHV-1RF); Conc 0.1 mM): ++++ (50-100% syncytia)
Mean Optical Readings at 450 nm (HIV (IHV-1RF); Conc 0.1 mM): 0.5347
Syncytia score day 5 (quadruplicate wells) (HIV (IHV-1RF); Conc 0.3 mM): +++ (25-50% syncytia)
Syncytia score day 6 (quadruplicate wells) (HIV (IHV-1RF); Conc 0.3 mM): +++ (25-50% syncytia)
Mean Optical Readings at 450 nm (HIV (IHV-1RF); Conc 0.3 mM): 0.5853
Mean Optical Readings at 450 nm (HIV (IHV-1RF); Conc 1 mM): 1.181
IC50 (HIV (IHV-1RF); [1]): 1000 µM
IODINE-STAINED INCLUSIONS/FIELD F1 (Chlamydia trachomatis; [2]): 0 inclusions/field
IODINE-STAINED INCLUSIONS/FIELD F2 (Chlamydia trachomatis; [2]): 0 inclusions/field
IODINE-STAINED INCLUSIONS/FIELD F3 (Chlamydia trachomatis; [2]): 0 inclusions/field
IODINE-STAINED INCLUSIONS/FIELD F4 (Chlamydia trachomatis; [2]): 0 inclusions/field
IODINE-STAINED INCLUSIONS/FIELD F5 (Chlamydia trachomatis; [2]): 0 inclusions/field
MEAN COUNT/FIELD (iodine-stained inclusions) (Chlamydia trachomatis; [2]): 0 inclusions/field
COMMENTS: inclusions seen on entire coverslip (Chlamydia trachomatis; [2]): 6 inclusions
TOTAL COUNT/FIELDS (iodine-stained inclusions) (Chlamydia trachomatis; [2]): 0
IODINE-STAINED INCLUSIONS/FIELD F1 (Chlamydia trachomatis; [3]): 0 inclusions/field
IODINE-STAINED INCLUSIONS/FIELD F2 (Chlamydia trachomatis; [3]): 0 inclusions/field
IODINE-STAINED INCLUSIONS/FIELD F3 (Chlamydia trachomatis; [3]): 0 inclusions/field
IODINE-STAINED INCLUSIONS/FIELD F4 (Chlamydia trachomatis; [3]): 0 inclusions/field
IODINE-STAINED INCLUSIONS/FIELD F5 (Chlamydia trachomatis; [3]): 0 inclusions/field
MEAN COUNT/FIELD (iodine-stained inclusions) (Chlamydia trachomatis; [3]): 0 inclusions/field
COMMENTS: inclusions seen on entire coverslip (Chlamydia trachomatis; [3]): No
TOTAL COUNT/FIELDS (iodine-stained inclusions) (Chlamydia trachomatis; [3]): 0
IODINE-STAINED INCLUSIONS/FIELD F1 (Chlamydia trachomatis; [4]): 0 inclusions/field
IODINE-STAINED INCLUSIONS/FIELD F2 (Chlamydia trachomatis; [5]): 0 inclusions/field
IODINE-STAINED INCLUSIONS/FIELD F3 (Chlamydia trachomatis; [5]): 0 inclusions/field
IODINE-STAINED INCLUSIONS/FIELD F4 (Chlamydia trachomatis; [5]): 0 inclusions/field
IODINE-STAINED INCLUSIONS/FIELD F5 (Chlamydia trachomatis; [5]): 0 inclusions/field
MEAN COUNT/FIELD (iodine-stained inclusions) (Chlamydia trachomatis; [5]): 0 inclusions/field
COMMENTS: inclusions seen on entire coverslip (Chlamydia trachomatis; [5]): No
TOTAL COUNT/FIELDS (iodine-stained inclusions) (Chlamydia trachomatis; [5]): 0
inhibition of the infection of McCoy cells with chlamydia (Chlamydia trachomatis): dose-dependent inhibition

O=C1C=CC(=O)N1c1ccc(OCCOCCOCCOCCOc2ccc(N3C(=O)C=CC3=O)cc2)cc1 [Compound 2, PEG(5) bis phenyl bis maleimide]
Syncytia score day 5 (quadruplicate wells) (HIV (IHV-1RF); Conc 0.003 mM): ++++ (50-100% syncytia)
Syncytia score day 6 (quadruplicate wells) (HIV (IHV-1RF); Conc 0.003 mM): ++++ (50-100% syncytia)
Mean Optical Readings at 450 nm (HIV (IHV-1RF); Conc 0.003 mM): 0.4883
Syncytia score day 5 (quadruplicate wells) (HIV (IHV-1RF); Conc 0.01 mM): ++++ (50-100% syncytia)
Syncytia score day 6 (quadruplicate wells) (HIV (IHV-1RF); Conc 0.01 mM): ++++ (50-100% syncytia)
Mean Optical Readings at 450 nm (HIV (IHV-1RF); Conc 0.01 mM): 0.4895
Syncytia score day 5 (quadruplicate wells) (HIV (IHV-1RF); Conc 0.03 mM): ++++ (50-100% syncytia)
Syncytia score day 6 (quadruplicate wells) (HIV (IHV-1RF); Conc 0.03 mM): ++++ (50-100% syncytia)
Mean Optical Readings at 450 nm (HIV (IHV-1RF); Conc 0.03 mM): 0.4928
Syncytia score day 5 (quadruplicate wells) (HIV (IHV-1RF); Conc 0.1 mM): ++++ (50-100% syncytia)
Syncytia score day 6 (quadruplicate wells) (HIV (IHV-1RF); Conc 0.1 mM): ++++ (50-100% syncytia)
Mean Optical Readings at 450 nm (HIV (IHV-1RF); Conc 0.1 mM): 0.4983
Syncytia score day 5 (quadruplicate wells) (HIV (IHV-1RF); Conc 0.3 mM): +++ (25-50% syncytia)
Syncytia score day 6 (quadruplicate wells) (HIV (IHV-1RF); Conc 0.3 mM): ++++ (50-100% syncytia)
Mean Optical Readings at 450 nm (HIV (IHV-1RF); Conc 0.3 mM): 0.5092
Mean Optical Readings at 450 nm (HIV (IHV-1RF); Conc 1 mM): 0.9895
IC50 (HIV (IHV-1RF); [1]): ~1000 µM
inhibition at 1000 µM (HIV (IHV-1RF); Human immunodeficiency virus 1, C8166, at 1 mM): ~50%
IODINE-STAINED INCLUSIONS/FIELD F1 (Chlamydia trachomatis; [2]): 3 inclusions/field
IODINE-STAINED INCLUSIONS/FIELD F2 (Chlamydia trachomatis; [2]): 2 inclusions/field
IODINE-STAINED INCLUSIONS/FIELD F3 (Chlamydia trachomatis; [2]): 6 inclusions/field
IODINE-STAINED INCLUSIONS/FIELD F4 (Chlamydia trachomatis; [2]): 5 inclusions/field
IODINE-STAINED INCLUSIONS/FIELD F5 (Chlamydia trachomatis; [2]): 7 inclusions/field
MEAN COUNT/FIELD (iodine-stained inclusions) (Chlamydia trachomatis; [2]): 5 inclusions/field
TOTAL COUNT/FIELDS (iodine-stained inclusions) (Chlamydia trachomatis; [2]): 23
IODINE-STAINED INCLUSIONS/FIELD F1 (Chlamydia trachomatis; [3]): 1 inclusions/field
IODINE-STAINED INCLUSIONS/FIELD F2 (Chlamydia trachomatis; [3]): 2 inclusions/field
IODINE-STAINED INCLUSIONS/FIELD F3 (Chlamydia trachomatis; [3]): 2 inclusions/field
IODINE-STAINED INCLUSIONS/FIELD F4 (Chlamydia trachomatis; [3]): 1 inclusions/field
IODINE-STAINED INCLUSIONS/FIELD F5 (Chlamydia trachomatis; [3]): 5 inclusions/field
MEAN COUNT/FIELD (iodine-stained inclusions) (Chlamydia trachomatis; [3]): 2 inclusions/field
TOTAL COUNT/FIELDS (iodine-stained inclusions) (Chlamydia trachomatis; [3]): 11
IODINE-STAINED INCLUSIONS/FIELD F1 (Chlamydia trachomatis; [4]): 0 inclusions/field
IODINE-STAINED INCLUSIONS/FIELD F2 (Chlamydia trachomatis; [5]): 0 inclusions/field
IODINE-STAINED INCLUSIONS/FIELD F3 (Chlamydia trachomatis; [5]): 0 inclusions/field
IODINE-STAINED INCLUSIONS/FIELD F4 (Chlamydia trachomatis; [5]): 0 inclusions/field
IODINE-STAINED INCLUSIONS/FIELD F5 (Chlamydia trachomatis; [5]): 0 inclusions/field
MEAN COUNT/FIELD (iodine-stained inclusions) (Chlamydia trachomatis; [5]): 0 inclusions/field
COMMENTS: inclusions seen on entire coverslip (Chlamydia trachomatis; [5]): 6 inclusions
TOTAL COUNT/FIELDS (iodine-stained inclusions) (Chlamydia trachomatis; [5]): 0
inhibition of the infection of McCoy cells with chlamydia (Chlamydia trachomatis): dose-dependent inhibition

Source: US20050148653A1, “Polymaleimide compounds and their medical use” (priority 2001, published 2005)
